Results from ChEMBL document CHEMBL3091428, “Synthesis and initial biological evaluation of substituted 1-phenylamino-2-thio-4,5-dimethyl-1H-imidazole derivatives” (Bioorg Med Chem Lett, 2013).
≈ marks a conversion by molar mass, not a printed value.

How the values were obtained:
Assay type in all cases: functional
[1] = system: Pseudomonas aeruginosa; assay: Antimicrobial activity against Pseudomonas aeruginosa ATCC 27853 after 24 hrs by broth microdilution method; conditions: ATCC 27853, 24 h
[2] = system: Klebsiella pneumoniae; assay: Antimicrobial activity against Klebsiella pneumoniae ATCC 13883 after 24 hrs by broth microdilution method; conditions: ATCC 13883, 24 h
[3] = system: Nakaseomyces glabratus; assay: Antimicrobial activity against Candida glabrata ATCC 90030 after 24 hrs by broth microdilution method; conditions: ATCC 90030, 24 h
[4] = system: Escherichia coli; assay: Antimicrobial activity against Escherichia coli ATCC 25922 after 24 hrs by broth microdilution method; conditions: ATCC 25922, 24 h
[5] = system: Escherichia coli; assay: Antimicrobial activity against Escherichia coli ATCC 35218 after 24 hrs by broth microdilution method; conditions: ATCC 35218, 24 h
[6] = system: Enterococcus faecalis; assay: Antimicrobial activity against Enterococcus faecalis ATCC 29212 after 24 hrs by broth microdilution method; conditions: ATCC 29212, 24 h
[7] = system: Listeria monocytogenes; assay: Antimicrobial activity against Listeria monocytogenes ATCC 19115 after 24 hrs by broth microdilution method; conditions: ATCC 19115, 24 h
[8] = system: Enterococcus faecalis; assay: Antimicrobial activity against Enterococcus faecalis ATCC 51299 after 24 hrs by broth microdilution method; conditions: ATCC 51299, 24 h
[9] = system: Candida albicans; assay: Antimicrobial activity against Candida albicans ATCC 90028 after 24 hrs by broth microdilution method; conditions: ATCC 90028, 24 h
[10] = system: Staphylococcus aureus; assay: Antimicrobial activity against Staphylococcus aureus ATCC 25923 after 24 hrs by broth microdilution method; conditions: ATCC 25923, 24 h
[11] = system: Pichia kudriavzevii; assay: Antimicrobial activity against Candida krusei ATCC 6258 after 24 hrs by broth microdilution method; conditions: ATCC 6258, 24 h

Structure (SMILES)	MIC [1] [µg/mL]	MIC [2] [µg/mL]	MIC [3] [µg/mL]	MIC [4] [µg/mL]	MIC [5] [µg/mL]	MIC [6] [µg/mL]	MIC [7] [µg/mL]	MIC [8] [µg/mL]	MIC [9] [µg/mL]	MIC [10] [µg/mL]	MIC [11] [µg/mL]
Cc1nc(SCC(=O)c2ccc(Cl)c(Cl)c2)n(Nc2ccccc2)c1C	400 (≈ 984 µM)	800 (≈ 1970 µM)	200 (≈ 492 µM)	800 (≈ 1970 µM)	800 (≈ 1970 µM)	200 (≈ 492 µM)	400 (≈ 984 µM)	800 (≈ 1970 µM)	400 (≈ 984 µM)	800 (≈ 1970 µM)	200 (≈ 492 µM)
Cc1nc(SCC(=O)c2ccccc2)n(Nc2ccc(Cl)cc2)c1C	400 (≈ 1080 µM)	800 (≈ 2150 µM)	800 (≈ 2150 µM)	800 (≈ 2150 µM)	800 (≈ 2150 µM)	200 (≈ 538 µM)	400 (≈ 1080 µM)	800 (≈ 2150 µM)	800 (≈ 2150 µM)	800 (≈ 2150 µM)	800 (≈ 2150 µM)
O=C(N[C@H](CO)[C@H](O)c1ccc([N+](=O)[O-])cc1)C(Cl)Cl [CHLORAMPHENICOL]	50 (≈ 155 µM)	50 (≈ 155 µM)	–	50 (≈ 155 µM)	25 (≈ 77.4 µM)	12.5 (≈ 38.7 µM)	50 (≈ 155 µM)	100 (≈ 309 µM)	–	50 (≈ 155 µM)	–
Cc1ccc(Nn2c(SCC(=O)c3ccc(Cl)cc3)nc(C)c2C)cc1	800 (≈ 2070 µM)	800 (≈ 2070 µM)	400 (≈ 1040 µM)	400 (≈ 1040 µM)	800 (≈ 2070 µM)	400 (≈ 1040 µM)	800 (≈ 2070 µM)	400 (≈ 1040 µM)	400 (≈ 1040 µM)	800 (≈ 2070 µM)	200 (≈ 518 µM)
CC(=O)N1CCN(c2ccc(OCC3COC(Cn4ccnc4)(c4ccc(Cl)cc4Cl)O3)cc2)CC1 (stereo not drawn) [KETOCONAZOLE]	–	–	100 (≈ 188 µM)	–	–	–	–	–	100 (≈ 188 µM)	–	50 (≈ 94.1 µM)
Cc1nc(SCC(=O)c2ccc(F)cc2)n(Nc2ccccc2)c1C	400 (≈ 1130 µM)	400 (≈ 1130 µM)	400 (≈ 1130 µM)	800 (≈ 2250 µM)	400 (≈ 1130 µM)	400 (≈ 1130 µM)	400 (≈ 1130 µM)	400 (≈ 1130 µM)	400 (≈ 1130 µM)	800 (≈ 2250 µM)	200 (≈ 563 µM)
COc1ccc(Nn2c(SCC(=O)c3ccccc3)nc(C)c2C)cc1	800 (≈ 2180 µM)	800 (≈ 2180 µM)	800 (≈ 2180 µM)	800 (≈ 2180 µM)	800 (≈ 2180 µM)	800 (≈ 2180 µM)	800 (≈ 2180 µM)	100 (≈ 272 µM)	800 (≈ 2180 µM)	800 (≈ 2180 µM)	800 (≈ 2180 µM)
COc1ccc(Nn2c(SCC(=O)c3ccc(OC)c(OC)c3)nc(C)c2C)cc1	800 (≈ 1870 µM)	800 (≈ 1870 µM)	400 (≈ 936 µM)	800 (≈ 1870 µM)	800 (≈ 1870 µM)	800 (≈ 1870 µM)	800 (≈ 1870 µM)	1600 (≈ 3740 µM)	200 (≈ 468 µM)	800 (≈ 1870 µM)	200 (≈ 468 µM)

Second part, the molecule after the results:

MIC [1] [µg/mL]	MIC [2] [µg/mL]	MIC [3] [µg/mL]	MIC [4] [µg/mL]	MIC [5] [µg/mL]	MIC [6] [µg/mL]	MIC [7] [µg/mL]	MIC [8] [µg/mL]	MIC [9] [µg/mL]	MIC [10] [µg/mL]	MIC [11] [µg/mL]	Structure (SMILES)
400 (≈ 1030 µM)	800 (≈ 2050 µM)	400 (≈ 1030 µM)	400 (≈ 1030 µM)	800 (≈ 2050 µM)	100 (≈ 256 µM)	200 (≈ 513 µM)	800 (≈ 2050 µM)	400 (≈ 1030 µM)	800 (≈ 2050 µM)	400 (≈ 1030 µM)	Cc1nc(SCC(=O)c2cccc(F)c2)n(Nc2ccc(Cl)cc2)c1C
800 (≈ 1990 µM)	400 (≈ 995 µM)	400 (≈ 995 µM)	400 (≈ 995 µM)	800 (≈ 1990 µM)	400 (≈ 995 µM)	400 (≈ 995 µM)	800 (≈ 1990 µM)	400 (≈ 995 µM)	400 (≈ 995 µM)	400 (≈ 995 µM)	COc1ccc(Nn2c(SCC(=O)c3ccc(Cl)cc3)nc(C)c2C)cc1
400 (≈ 1040 µM)	800 (≈ 2080 µM)	400 (≈ 1040 µM)	800 (≈ 2080 µM)	800 (≈ 2080 µM)	400 (≈ 1040 µM)	400 (≈ 1040 µM)	800 (≈ 2080 µM)	400 (≈ 1040 µM)	400 (≈ 1040 µM)	400 (≈ 1040 µM)	COc1ccc(Nn2c(SCC(=O)c3cccc(F)c3)nc(C)c2C)cc1
800 (≈ 1990 µM)	400 (≈ 995 µM)	800 (≈ 1990 µM)	800 (≈ 1990 µM)	800 (≈ 1990 µM)	200 (≈ 498 µM)	1600 (≈ 3980 µM)	400 (≈ 995 µM)	800 (≈ 1990 µM)	800 (≈ 1990 µM)	200 (≈ 498 µM)	COc1cccc(C(=O)CSc2nc(C)c(C)n2Nc2ccc(Cl)cc2)c1
800 (≈ 1990 µM)	800 (≈ 1990 µM)	800 (≈ 1990 µM)	800 (≈ 1990 µM)	800 (≈ 1990 µM)	800 (≈ 1990 µM)	800 (≈ 1990 µM)	800 (≈ 1990 µM)	800 (≈ 1990 µM)	800 (≈ 1990 µM)	400 (≈ 995 µM)	COc1ccc(Nn2c(SCC(=O)c3cccc(Cl)c3)nc(C)c2C)cc1
800 (≈ 2010 µM)	800 (≈ 2010 µM)	800 (≈ 2010 µM)	800 (≈ 2010 µM)	800 (≈ 2010 µM)	800 (≈ 2010 µM)	800 (≈ 2010 µM)	200 (≈ 503 µM)	800 (≈ 2010 µM)	800 (≈ 2010 µM)	800 (≈ 2010 µM)	COc1ccc(Nn2c(SCC(=O)c3cccc(OC)c3)nc(C)c2C)cc1
